Counter-ions that a name gives are not always drawn.
Molecular target: T1, human mAChR M4 (Homo sapiens, UniProt P08173)
T1 sequence (P08173 1-479): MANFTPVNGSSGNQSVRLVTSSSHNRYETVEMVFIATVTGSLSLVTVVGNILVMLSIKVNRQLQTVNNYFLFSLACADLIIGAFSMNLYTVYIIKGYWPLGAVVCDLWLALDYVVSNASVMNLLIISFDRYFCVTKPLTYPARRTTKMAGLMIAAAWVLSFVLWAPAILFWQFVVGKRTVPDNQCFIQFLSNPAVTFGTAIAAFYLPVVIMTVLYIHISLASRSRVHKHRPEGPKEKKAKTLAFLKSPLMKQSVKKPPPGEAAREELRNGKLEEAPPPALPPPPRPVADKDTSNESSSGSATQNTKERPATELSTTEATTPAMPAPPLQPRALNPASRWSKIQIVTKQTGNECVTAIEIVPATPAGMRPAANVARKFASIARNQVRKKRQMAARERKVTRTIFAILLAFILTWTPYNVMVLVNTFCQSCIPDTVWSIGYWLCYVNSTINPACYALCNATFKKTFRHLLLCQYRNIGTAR
Test: mAChR M4 cell-based functional assay (calcium flux), human M4
Details: for Emax: % ACh maximum at 30 μM

[1] = Human M4 EC50 (nM), Table 11, calcium flux, PAM activity with EC20 acetylcholine
[2] = Human M4 EC50 (nM), Table 10, calcium flux, PAM activity with EC20 acetylcholine

| Emax (Table 10) [%] | EC50 [2] [nM] | SMILES | also measured |
| --- | --- | --- | --- |
|  |  | Cc1cnn(C)c1-c1ccc(CNc2ncnc3c2sc2nnc(C)c(C)c23)cc1 [Compound 342, N-[[4-(2,4-dimethylpyrazol-3-yl)phenyl]methyl]-3,4-dimethyl-pyrimido[4′,5′:4,5] thieno[2,3-c]pyridazin-8-amine] | EC50 [1]: 1100 nM; Emax (Table 11): 81.5% |
| 61.1 |  | Cc1nnc2oc3c(NCc4cccc(C5(O)CCC5)c4)ncnc3c2c1C [Compound 300, 1-[3-[[(3,4-dimethylpyrimido [4′,5′:4,5]furo[2,3-c]pyridazin-8-yl)amino]methyl]phenyl]cyclobutanol] |  |
|  |  | COc1ccc(C2CC2Nc2ncnc3c2sc2nnc(C)c(C)c23)cc1 (stereo not drawn) [Compound 26, N-(2-(4-methoxyphenyl)cyclopropyl)-3,4-dimethylpyrimido [4′,5′:4,5]thieno[2,3-c] pyridazin-8-amine] | Emax (Human M4): 44%; EC50 (Human M4 EC50, CHO-K1 hM4-Gqi5 cells, calcium flux, increase in EC20 acetylcholine response): ≥ 10000 nM |
| 40.6 | 867 | Cc1c(Cl)cnc2sc3c(N4CCC4)ncnc3c12 [Compound 221, 4-(azetidin-1-yl)-8-chloro-9-methyl-pyrido[3′,2′:4,5] thieno[3,2-d] pyrimidine] |  |
| 93.1 | 574 | Cc1nnc2sc3c(NCc4ccc(C(=O)N5CCCCC5)cc4)ncnc3c2c1C [Compound 125, [4-[[(3,4-dimethylpyrimido [4′,5′:4,5]thieno[2,3-c]pyridazin-8-yl)amino]methyl]phenyl]-(1-piperidyl)methanone] |  |
| 73.7 | 1190 | Cc1nnc2sc3c(NC4CNC4)ncnc3c2c1C [Compound 88, N-(azetidin-3-yl)-3,4-dimethyl-pyrimido [4′,5′:4,5]thieno[2,3-c] pyridazin-8-amine dihydrochloride] |  |
| 31.8 | 2890 | Cc1c(Cl)cnc2sc3c(NCc4cnc5c(c4)CCC5)ncnc3c12 [Compound 235, 8-chloro-N-(6,7-dihydro-5H-cyclopenta[b]pyridin-3-ylmethyl)-9-methyl-pyrido [3′,2′:4,5]thieno[3,2-d] pyrimidin-4-amine] |  |
| 97.3 |  | Cc1c(Cl)nnc2sc3c(NCc4ccc(C(C)(C)O)cc4)ncnc3c12 [Compound 213] |  |
| 25.6 |  | Cc1nnc2oc3c(NC4CC5(COC5)C4)ncnc3c2c1C [Compound 305, 3,4-dimethyl-N-(2-oxaspiro[3.3]heptan-6-yl)pyrimido[4′,5′:4,5] furo[2,3-c]pyridazin-8-amine] | EC50 (Human M4 EC50 (nM), Table 10, unit μM (bounds)): > 10000 nM |
| 31 | 748 | Cc1nnc2sc3c(N4CCC(C(=O)Nc5ccccn5)C4)ncnc3c2c1C (stereo not drawn) [Compound 174, 1-(3,4-dimethylpyrimido [4′,5′:4,5]thieno[2,3-c]pyridazin-8-yl)-N-(2-pyridyl)pyrrolidine-3-carboxamide] |  |
| 57.9 | 1750 | Cc1nnc2oc3c(NC4CC(F)(F)C4)ncnc3c2c1C [Compound 306, N-(3,3-difluoro-cyclobutyl)-3,4-dimethyl-pyrimido [4′,5′:4,5]furo[2,3-c]pyridazin-8-amine] |  |
|  |  | Cc1nnc2sc3c(NCc4ccc(C(=O)NC5CC5)c(Cl)c4)ncnc3c2c1C [Compound 313, 2-chloro-N-cyclopropyl-4-[[(3,4-dimethylpyrimido[4′,5′:4,5]thieno[2,3-c]pyridazin-8-yl)amino]methyl]benzamide] | EC50 [1]: 166 nM; Emax (Table 11): 75.2% |
| 44.5 | 4010 | Cc1cc(C)c2c(n1)sc1c(NCc3ccc(OC(F)F)nc3)ncnc12 [Compound 203, N-[[6-(difluoromethoxy)-3-pyridyl]methyl]-7.9-dimethyl-pyrido[3′,2′:4,5] thieno[3,2-d]pyrimidin-4-amine] |  |
| 89.9 | 55.5 | Cc1c(Cl)nnc2sc3c(N4CCCC4)ncnc3c12 [Compound 209, 3-chloro-4-methyl-8-pyrrolidin-1-yl-pyrimido[4′,5′:4,5] thieno[2,3-c]pyridazine] |  |
|  |  | Cc1nnc2sc3c(NCc4ccc(-c5ccnn5C)cc4F)ncnc3c2c1C [Compound 344, N-[[2-fluoro-4-(2-methylpyrazol-3-yl)phenyl]methyl]-3,4-dimethyl-pyrimido[4′,5′:4,5]thieno [2,3-c]pyridazin-8-amine] | EC50 [1]: 824 nM; Emax (Table 11): 70.9% |
| 59.3 | 971 | Cc1nnc2sc3c(NCc4ccc(Oc5ccccn5)cc4)ncnc3c2c1C [Compound 110, 3,4-dimethyl-N-[[4-(2-pyridyloxy)phenyl]methyl] pyrimido[4′,5′:4,5]thieno [2,3-c]pyridazin-8-amine hydrochloride] |  |
| 54.8 | 1530 | Cc1nnc2oc3c(NC4CCC4)ncnc3c2c1C [Compound 303, N-cyclobutyl-3,4-dimethyl-pyrimido [4′,5′:4,5]furo[2,3-c]pyridazin-8-amine] |  |
| 80.3 | 122 | Cc1nnc2sc3c(N4CC(O)(C5CC5)C4)ncnc3c2c1C [Compound 103, 3-cyclopropyl-1-(3,4-dimethylpyrimido [4′,5′:4,5]thieno[2,3-c]pyridazin-8-yl)azetidin-3-ol] |  |
| 97.2 | 1170 | Cc1nnc2sc3c(NCc4ccc(F)c(C(=O)N[C@H](C)C(F)(F)F)c4)ncnc3c2c1C [Compound 182, 5-[[(3,4-dimethylpyrimido [4′,5′:4,5]thieno[2,3-c]pyridazin-8-yl)amino]methyl]-2-fluoro-N-[(1R)-2,2,2-trifluoro-1-methyl-ethyl]benzamide] |  |
| 40.6 | 5510 | Cc1c(Cl)cnc2sc3c(NCc4ccc5c(c4)CC(C)(C)O5)ncnc3c12 [Compound 233, 8-chloro-N-[(2,2-dimethyl-3H-benzofuran-5-yl)methyl]-9-methyl-pyrido [3′,2′:4,5]thieno[3,2-d] pyrimidin-4-amine] |  |
| 44 | 931 | Cc1c(Cl)cnc2sc3c(N4CC(F)(F)C4)ncnc3c12 [Compound 223, 8-chloro-4-(3,3-difluoroazetidin-1-yl)-9-methyl-pyrido [3′,2′:4,5]thieno[3,2-d] pyrimidine] |  |
| 86.7 |  | COc1nnc2sc3c(NCc4ccc(C(C)(C)O)cc4)ncnc3c2c1C [Compound 280, 2-[4-[[(3-methoxy-4-methyl-pyrimido [4′,5′:4,5]thieno[2,3-c]pyridazin-8-yl)amino]methyl]phenyl]propan-2-ol] |  |
|  |  | Cc1nnc2sc3c(NCc4ccc(C(=O)NC5CCCC5)c(Cl)c4)ncnc3c2c1C [Compound 317, 2-chloro-N-cyclopentyl-4-[[(3,4-dimethylpyrimido [4′,5′:4,5]thieno[2,3-c]pyridazin-8-yl)amino]methyl]benzamide] | EC50 [1]: 323 nM; Emax (Table 11): 75.1% |
| 34.9 |  | Cc1cc(C)c2c(n1)oc1c(NC3CN(c4ncc(F)cn4)C3)ncnc12 [Compound 289, N-[1-(5-fluoropyrimidin-2-yl)azetidin-3-yl]-7,9-dimethyl-pyrido[3′,2′:4,5]furo[3,2-d]pyrimidin-4-amine hydrochloride] |  |
| 75.8 | 910 | Cc1cc(C)c2c(n1)sc1c(NCc3ccc(C(C)(C)O)cc3)ncnc12 [Compound 206, 2-[4-[[(7,9-dimethylpyrido [3′,2′:4,5]thieno[3,2-d]pyrimidin-4-yl)amino]methyl]phenyl]propan-2-ol] |  |
| 58.2 | 862 | Cc1nnc2oc3c(NCc4ccc(C5(O)CCC5)cc4)ncnc3c2c1C [Compound 298, 1-[4-[[(3,4-dimethylpyrimido [4′,5′:4,5]furo[2,3-c]pyridazin-8-yl)amino]methyl]phenyl]cyclobutanol] |  |

Reference: patent US10239887B2, “Positive allosteric modulators of the muscarinic acetylcholine receptor M4” (Vanderbilt University, priority 2016, dated 2019)
